From the supplement of paper PMC5662764
± gives the standard deviation of the averaged measurements.

Key:
Assay in all cases: normalised growth rate inhibition (GR value) relative to DMSO control (GR (1 = untreated growth, 0 = cytostasis, <0 = cytotoxic)); higher = less growth inhibition
Conditions in all cases: 72 h
BT20 = test system: BT20
Protocol: (§1)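 Breast cancer cell lines (BT-20, Hs 578T, MCF 10A, MCF7, MDA-MB-231, SK-BR-3) were plated in 384-well plates and treated 24 h later with drugs at six concentrations (0.04-10 µM). Viable cells were counted by Hoechst/dead-cell-stain imaging at 0 and 72 h. Counts were normalised to DMSO controls on the same plate to give the relative cell count and the growth-rate inhibition (GR) value; technical plate triplicates were averaged for each biological replicate.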

HS578T = test system: HS578T
Protocol: as §1

MCF10A = test system: MCF10A
Protocol: as §1

MCF7 = test system: MCF7
Protocol: as §1

MDAMB231 = test system: MDAMB231
Protocol: as §1

SKBR3 = test system: SKBR3
Protocol: as §1

Structure (SMILES)	normalised growth rate inhibition (BT20; 0.04 µM)	normalised growth rate inhibition (BT20; 0.12 µM)	normalised growth rate inhibition (BT20; 0.37 µM)	normalised growth rate inhibition (BT20; 1.11 µM)	normalised growth rate inhibition (BT20; 3.33 µM)	normalised growth rate inhibition (BT20; 10 µM)	normalised growth rate inhibition (HS578T; 0.04 µM)	normalised growth rate inhibition (HS578T; 0.12 µM)	normalised growth rate inhibition (HS578T; 0.37 µM)	normalised growth rate inhibition (HS578T; 1.11 µM)	normalised growth rate inhibition (HS578T; 3.33 µM)	normalised growth rate inhibition (HS578T; 10 µM)	normalised growth rate inhibition (MCF10A; 0.04 µM)	normalised growth rate inhibition (MCF10A; 0.12 µM)	normalised growth rate inhibition (MCF10A; 0.37 µM)	normalised growth rate inhibition (MCF10A; 1.11 µM)	normalised growth rate inhibition (MCF10A; 3.33 µM)	normalised growth rate inhibition (MCF10A; 10 µM)	normalised growth rate inhibition (MCF7; 0.04 µM)	normalised growth rate inhibition (MCF7; 0.12 µM)	normalised growth rate inhibition (MCF7; 0.37 µM)	normalised growth rate inhibition (MCF7; 1.11 µM)	normalised growth rate inhibition (MCF7; 3.33 µM)	normalised growth rate inhibition (MCF7; 10 µM)	normalised growth rate inhibition (MDAMB231; 0.04 µM)	normalised growth rate inhibition (MDAMB231; 0.12 µM)	normalised growth rate inhibition (MDAMB231; 0.37 µM)	normalised growth rate inhibition (MDAMB231; 1.11 µM)	normalised growth rate inhibition (MDAMB231; 3.33 µM)	normalised growth rate inhibition (MDAMB231; 10 µM)	normalised growth rate inhibition (SKBR3; 0.04 µM)	normalised growth rate inhibition (SKBR3; 0.12 µM)	normalised growth rate inhibition (SKBR3; 0.37 µM)	normalised growth rate inhibition (SKBR3; 1.11 µM)	normalised growth rate inhibition (SKBR3; 3.33 µM)	normalised growth rate inhibition (SKBR3; 10 µM)
CC(=O)Nc1nc(C)c(-c2ccc(Cl)c(S(=O)(=O)NCCO)c2)s1	1.024 ± 0.0077	1.02 ± 0.03	1.05 ± 0.034	0.973 ± 0.068	0.746 ± 0.033	0.0954 ± 0.044	1.013 ± 0.0069	1.01 ± 0.02	0.99 ± 0.056	0.929 ± 0.093	0.585 ± 0.16	0.162 ± 0.19	0.9973 ± 0.0055	0.995 ± 0.02	0.993 ± 0.029	0.959 ± 0.026	0.831 ± 0.094	0.502 ± 0.077	1.08 ± 0.094	1.03 ± 0.14	0.994 ± 0.22	0.88 ± 0.28	0.441 ± 0.11	0.0722 ± 0.078	1.01 ± 0.055	1.01 ± 0.061	0.999 ± 0.1	0.919 ± 0.061	0.78 ± 0.036	0.272 ± 0.021	1.09 ± 0.03	1.09 ± 0.045	1.01 ± 0.094	0.916 ± 0.12	0.597 ± 0.037	0.00524 ± 0.12
CCn1c(-c2nonc2N)nc2c(C#CC(C)(C)O)ncc(OC[C@H]3CCCNC3)c21	0.8181 ± 0.0049	0.779 ± 0.062	0.636 ± 0.11	0.521 ± 0.12	0.453 ± 0.062	0.371 ± 0.047	0.846 ± 0.058	0.798 ± 0.075	0.726 ± 0.084	0.713 ± 0.11	0.717 ± 0.13	0.728 ± 0.12	0.989 ± 0.029	0.976 ± 0.024	0.937 ± 0.039	0.873 ± 0.034	0.872 ± 0.039	0.891 ± 0.042	0.6 ± 0.073	0.499 ± 0.17	0.42 ± 0.13	0.374 ± 0.096	0.361 ± 0.09	0.312 ± 0.09	0.86 ± 0.088	0.904 ± 0.021	0.906 ± 0.021	0.94 ± 0.026	1.01 ± 0.032	0.869 ± 0.08	0.578 ± 0.064	0.555 ± 0.035	0.556 ± 0.038	0.571 ± 0.039	0.62 ± 0.032	0.658 ± 0.065
CN(c1ccccc1CNc1nc(Nc2ccc3c(c2)CC(=O)N3)ncc1C(F)(F)F)S(C)(=O)=O	0.902 ± 0.043	0.763 ± 0.035	0.414 ± 0.12	0.121 ± 0.12	0.0389 ± 0.12	-0.19 ± 0.21	0.761 ± 0.021	0.694 ± 0.042	0.537 ± 0.063	0.27 ± 0.068	0.181 ± 0.076	-0.0957 ± 0.088	0.744 ± 0.029	0.501 ± 0.056	0.233 ± 0.087	0.106 ± 0.019	0.0578 ± 0.032	-0.154 ± 0.16	0.742 ± 0.065	0.471 ± 0.1	0.184 ± 0.078	0.0628 ± 0.026	-0.0235 ± 0.037	-0.28 ± 0.03	0.913 ± 0.058	0.78 ± 0.082	0.49 ± 0.2	0.241 ± 0.13	0.11 ± 0.13	-0.197 ± 0.22	1.04 ± 0.024	0.653 ± 0.081	0.306 ± 0.017	0.0323 ± 0.071	-0.0178 ± 0.071	-0.141 ± 0.18
Cc1[nH]c(/C=C2\C(=O)Nc3ccc(S(=O)(=O)Cc4c(Cl)cccc4Cl)cc32)c(C)c1C(=O)N1CCC[C@@H]1CN1CCCC1	1.017 ± 0.0089	1.01 ± 0.052	1.003 ± 0.0079	0.976 ± 0.042	0.973 ± 0.035	0.22 ± 0.42	1 ± 0.028	1.002 ± 0.003	1 ± 0.011	0.96 ± 0.032	0.954 ± 0.018	-0.131 ± 0.58	0.991 ± 0.01	0.9827 ± 0.0045	0.9763 ± 0.0045	0.967 ± 0.012	0.9647 ± 0.0068	0.544 ± 0.43	1.06 ± 0.012	1.06 ± 0.073	1.05 ± 0.051	1.01 ± 0.059	0.923 ± 0.052	0.665 ± 0.17	1.03 ± 0.045	1.02 ± 0.069	1.02 ± 0.043	0.997 ± 0.053	0.94 ± 0.023	-0.343 ± 0.3	1.04 ± 0.071	1.06 ± 0.052	1.07 ± 0.087	1.06 ± 0.098	0.956 ± 0.047	0.012 ± 0.5
Cc1[nH]c(/C=C2\C(=O)Nc3ccc(S(=O)(=O)N(C)c4cccc(Cl)c4)cc32)c(C)c1C(=O)N1CCN(C)CC1	1.06 ± 0.037	1.04 ± 0.017	1 ± 0.029	0.922 ± 0.015	0.819 ± 0.011	0.0654 ± 0.082	1.02 ± 0.014	0.992 ± 0.013	0.9492 ± 0.0032	0.883 ± 0.025	0.818 ± 0.03	0.159 ± 0.083	1 ± 0.019	0.976 ± 0.02	0.941 ± 0.02	0.867 ± 0.01	0.742 ± 0.022	0.474 ± 0.032	1.1 ± 0.046	1.05 ± 0.075	1.01 ± 0.073	0.858 ± 0.037	0.712 ± 0.045	0.0989 ± 0.046	1.07 ± 0.065	1.01 ± 0.04	1 ± 0.057	0.954 ± 0.058	0.847 ± 0.076	0.0987 ± 0.12	1.14 ± 0.075	1.08 ± 0.085	1.11 ± 0.057	0.996 ± 0.058	0.923 ± 0.032	0.00625 ± 0.024
Cc1ccc2nc(NCCN)c3ncc(C)n3c2c1	1.01 ± 0.027	0.968 ± 0.055	0.952 ± 0.087	0.847 ± 0.12	0.778 ± 0.082	-0.00828 ± 0.2	1.01 ± 0.018	0.998 ± 0.018	0.99 ± 0.021	0.92 ± 0.049	0.723 ± 0.11	-0.218 ± 0.13	0.996 ± 0.011	0.979 ± 0.014	0.974 ± 0.016	0.967 ± 0.019	0.957 ± 0.018	0.85 ± 0.046	1.06 ± 0.058	1 ± 0.06	0.883 ± 0.058	0.502 ± 0.14	0.0136 ± 0.12	-0.348 ± 0.14	0.9929 ± 0.0097	0.936 ± 0.097	0.885 ± 0.06	0.652 ± 0.085	0.265 ± 0.11	-0.253 ± 0.2	1.05 ± 0.043	1.01 ± 0.088	0.929 ± 0.11	0.604 ± 0.066	0.192 ± 0.13	-0.358 ± 0.23
Cc1cnc(Nc2ccc(OCCN3CCCC3)cc2)nc1Nc1cccc(S(=O)(=O)NC(C)(C)C)c1	1.04 ± 0.029	0.969 ± 0.0097	0.934 ± 0.022	0.823 ± 0.031	0.629 ± 0.024	-0.141 ± 0.14	1.01 ± 0.019	0.986 ± 0.019	0.887 ± 0.03	0.655 ± 0.066	0.258 ± 0.1	-0.184 ± 0.17	0.989 ± 0.019	0.964 ± 0.018	0.938 ± 0.028	0.876 ± 0.041	0.512 ± 0.19	0.0536 ± 0.034	1.02 ± 0.06	0.96 ± 0.079	0.813 ± 0.11	0.545 ± 0.23	0.0996 ± 0.12	-0.272 ± 0.058	1.01 ± 0.074	0.934 ± 0.075	0.877 ± 0.11	0.643 ± 0.19	0.104 ± 0.19	-0.306 ± 0.15	1.07 ± 0.082	0.997 ± 0.013	0.907 ± 0.023	0.766 ± 0.065	0.501 ± 0.11	-0.201 ± 0.095
